According to BindingDB's records for doi:10.7270/Q2N301S8 (D3R/Abbott, 2020):

The compounds below were run against Beta-secretase 1 (Homo sapiens, UniProt P56817) (assay: D3R2027).
Text: D3R2027

Chain of Beta-secretase 1 (P56817 whole entry): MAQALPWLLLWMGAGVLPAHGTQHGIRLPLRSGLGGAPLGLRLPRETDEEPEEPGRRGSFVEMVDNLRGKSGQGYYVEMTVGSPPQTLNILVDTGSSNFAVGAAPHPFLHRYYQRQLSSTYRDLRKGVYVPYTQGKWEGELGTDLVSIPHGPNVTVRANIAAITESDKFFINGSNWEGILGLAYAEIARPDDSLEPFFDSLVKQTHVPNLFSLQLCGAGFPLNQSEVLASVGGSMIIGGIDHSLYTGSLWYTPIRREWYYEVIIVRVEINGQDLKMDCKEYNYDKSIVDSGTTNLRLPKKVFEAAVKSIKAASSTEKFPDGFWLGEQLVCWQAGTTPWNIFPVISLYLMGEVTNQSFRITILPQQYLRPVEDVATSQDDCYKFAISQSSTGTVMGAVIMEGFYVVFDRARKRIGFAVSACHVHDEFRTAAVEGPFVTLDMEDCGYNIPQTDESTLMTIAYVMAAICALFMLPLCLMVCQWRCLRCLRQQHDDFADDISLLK

Compared with `CC(C)c1cccc(CNC[C@@H](O)[C@@H]2C[C@H](C)CCCCC[C@H](C)CCC(=O)N(C)[C@@H](C)C(=O)N2)c1` [BACE_33], `CC(C)c1cccc(CNC[C@@H](O)[C@@H]2C[C@H](C)CCCCCCCCC(=O)N(C)CC(=O)N2)c1` [BACE_32] is 19-fold higher in IC50: 19 nM for the first, 360 nM for the second.

Going from `COCc1cc2cc(c1)C(=O)N[C@H]([C@H](O)CNCc1cnn(CC(C)C)c1)Cc1cccc(c1)OCCCCN2` [BACE_127] to `COCc1cc2cc(c1)C(=O)N[C@H]([C@H](O)CN)Cc1cccc(c1)OCCCCN2` [BACE_126], the IC50 rises from 100 nM to 13000 nM (130-fold).

First: COCc1cc2cc(c1)C(=O)N[C@H]([C@H](O)CNC(C)(C)c1cc(C(C)(C)C)ccn1)Cc1cccc(c1)OCCCCN2 [BACE_124]
Second: CC(C)Cc1cncc(C(C)(C)NC[C@@H](O)[C@@H]2Cc3cccc(c3)OCCCCNc3cccc(c3)C(=O)N2)c1 [BACE_123]
The IC50 of the first is 10-fold lower: 25 nM for the first, 260 nM for the second.

`CC(C)c1cccc(CNC[C@@H](O)[C@@H]2C[C@H](C)CCCCCCCCC(=O)N3CCCC[C@H]3C(=O)N2)c1` [BACE_85] and `Cc1cc2cc(n1)N(C)CCCCCC[C@@H](C)C[C@@H]([C@H](O)CNCc1cccc(C(C)C)c1)NC2=O` [BACE_44] are within 1.5-fold of each other in IC50: 1500 nM for the first, 2100 nM for the second.

First: CC(C)c1cccc(C(C)(C)NC[C@@H](O)[C@@H]2Cc3cc(F)c(N)c(c3)CCCCNc3cccc(c3)C(=O)N2)c1 [BACE_116]
Second: CC(C)c1cccc(C(C)(C)NC[C@@H](O)[C@@H]2C[C@H](C)CCCCCCCNc3cccc(c3)C(=O)N2)c1 [BACE_55]
The IC50 of the first is 4.5-fold lower: 120 nM for the first, 540 nM for the second.

Going from `CC(C)(NC[C@@H](O)[C@@H]1Cc2cccc(c2)CCCCNc2cncc(c2)C(=O)N1)c1cccc(Br)c1` [BACE_120] to `Cc1cc2cc(n1)NCCCCc1cccc(c1)C[C@@H]([C@H](O)CNCc1cc(C(C)(C)C)ccn1)NC2=O` [BACE_97], the IC50 falls from 590 nM to 3 nM (200-fold).

Compared with `COCc1cc2cc(c1)C(=O)N[C@H]([C@H](O)CNC1(c3cccc(C(C)(C)C)c3)COC1)C[C@H](C)CCCCCCCN2` [BACE_60], `C[C@@H]1CCCCCCCNc2cccc(c2)C(=O)N[C@H]([C@H](O)CNC2(c3cccc(C(C)(C)C)c3)COC2)C1` [BACE_56] is 5.2-fold higher in IC50: 33 nM for the first, 170 nM for the second. The first is the more potent here.

Compared with `CC(=O)COc1cc2cc(c1)C(=O)N[C@H]([C@H](O)CNCc1cc(C(C)(C)C)ccn1)Cc1cccc(c1)CCCCO2` [BACE_135], `COC(=O)c1cc2cc(c1)C(=O)N[C@H]([C@H](O)CNCc1cccc(C(C)C)c1)Cc1cccc(c1)CCCCO2` [BACE_134] is 18-fold higher in IC50: 10 nM for the first, 180 nM for the second.

First: CC(C)(C)Cc1cc(C(C)(C)NC[C@@H](O)[C@@H]2Cc3cccc(c3)OCCCCOc3cncc(c3)C(=O)N2)no1 [BACE_109]
Second: CC(C)(C)Cc1cc(C(C)(C)NC[C@@H](O)[C@@H]2Cc3cccc(c3)OCCCCOc3cc(Cl)cc(c3)C(=O)N2)no1 [BACE_96]
The IC50 of the first is 1.8-fold lower: 4.5 nM for the first, 8 nM for the second.

First: CC(C)c1cccc(CNC[C@@H](O)[C@@H]2Cc3ccc(O)c(c3)Cc3ccccc3OCC(=O)N[C@@H](C)C(=O)N2)c1 [BACE_88]
Second: CC(C)c1cccc(CNC[C@@H](O)[C@@H]2Cc3cccc(c3)OCCCCCC(=O)N(C)[C@@H](C)C(=O)N2)c1 [BACE_11]
The IC50 of the first is 130-fold higher: 4300 nM for the first, 32 nM for the second.

First: CC(C)c1cccc(CNC[C@@H](O)[C@@H]2C[C@H](C)CCCCCN([C@H](C)c3ccccc3)C(=O)c3cc(cc(-c4ncco4)c3)C(=O)N2)c1 [BACE_7]
Second: CCN1CCCCC[C@@H](C)C[C@@H]([C@H](O)CNCc2cccc(C(C)C)c2)NC(=O)c2cc(cc(-c3ncco3)c2)C1=O [BACE_40]
The IC50 of the first is 1.8-fold lower: 2 nM for the first, 3.5 nM for the second. The first is the more potent here.

Going from `C[C@@H]1CCCCCCCCC(=O)N(C)[C@@H](C)C(=O)N[C@H]([C@H](O)CNC(C)(C)c2cc(CC(C)(C)C)on2)C1` [BACE_27] to `C[C@@H]1CCCCCCCCC(=O)N(C)[C@@H](C)C(=O)N[C@H]([C@H](O)CNC(C)(C)c2cccc(Br)c2)C1` [BACE_28], the IC50 rises from 5.8 nM to 230 nM (40-fold).

First: CCOc1ccc(C(F)(F)F)c(CNC[C@@H](O)[C@@H]2C[C@H](C)CCOCCCCNc3cccc(c3)C(=O)N2)c1 [BACE_72]
Second: COCc1cc2cc(c1)C(=O)N[C@H]([C@H](O)CNCc1cc(C(F)(F)F)ccc1F)C[C@H](C)CCOCCCCN2 [BACE_76]
The IC50 of the first is 1.6-fold higher: 8900 nM for the first, 5600 nM for the second.

Going from `C[C@@H]1CCCCCCCCS(=O)(=O)C[C@@H](C)C(=O)N[C@H]([C@H](O)CN[C@@H](C)c2cc(CC(C)(C)C)on2)C1` [BACE_39] to `C[C@@H]1CCCCCCCOc2cccc(c2)C(=O)N[C@H]([C@H](O)CNCc2cncc(CC(C)(C)C)c2)C1` [BACE_78], the IC50 rises from 21 nM to 880 nM (42-fold).

First: C[C@@H]1CC(=O)NCCCCOc2cccc(c2)C[C@@H]([C@H](O)CNC2(c3cccc(C(C)(C)C)c3)CCCCC2)NC1=O [BACE_93]
Second: COCc1cc2cc(c1)C(=O)N[C@H]([C@H](O)CNC1(c3cccc(C(C)C)c3)CC1)C/C(C)=C/COCCCCN2 [BACE_77]
The IC50 of the first is 7.9-fold lower: 10 nM for the first, 79 nM for the second. The first is the more potent here.

Compared with `C[C@H](NC[C@@H](O)[C@@H]1Cc2cccc(c2)OCCCCOc2cncc(c2)C(=O)N1)c1cc(CC(C)(C)C)on1` [BACE_125], `Cc1cc2cc(n1)OCCCCOc1cccc(c1)C[C@@H]([C@H](O)CNC(C)(C)c1cc(C(C)(C)C)sn1)NC2=O` [BACE_110] is 20-fold higher in IC50: 6 nM for the first, 120 nM for the second. The first is the more potent here.

Compared with `COCc1cc2cc(c1)C(=O)N[C@H]([C@H](O)CNCc1cccc(C(C)C)c1)C[C@H](C)CCCCCCCN2` [BACE_9], `COCc1cc2cc(c1)C(=O)N[C@H]([C@H](O)CNCc1cccc(C(C)C)c1)C[C@H](C)CCOCCCCN2` [BACE_10] is 6.1-fold higher in IC50: 93 nM for the first, 570 nM for the second. The first is the more potent here.

First: CCCCNC(=O)[C@H](C)C[C@H](O)[C@@H]1Cc2cccc(c2)CCCCCNc2cc(cc(OC)n2)C(=O)N1 [BACE_154]
Second: CC(C)c1ccnc(C2(NC[C@@H](O)[C@@H]3Cc4cccc(c4)CCCCNc4cc(cc(Cl)n4)C(=O)N3)CC2)c1 [BACE_98]
The IC50 of the first is 260-fold higher: 130 nM for the first, 0.5 nM for the second.

Going from `CC(C)c1cccc(CNC[C@@H](O)[C@@H]2C[C@H](C)CCCCCCCN(S(C)(=O)=O)c3cc(cc(N(C)S(C)(=O)=O)c3)C(=O)N2)c1` [BACE_69] to `CC(C)c1cccc(CNC[C@@H](O)[C@@H]2C[C@H](C)CCCCCCCOc3cc(cc(Cl)n3)C(=O)N2)c1` [BACE_51], the IC50 falls from 1900 nM to 29 nM (66-fold). The second is the more potent here.

Going from `COCc1cc2cc(c1)C(=O)N[C@H]([C@H](O)CNCc1ccc3c(c1)OCCCO3)C[C@H](C)CCCCCCCN2` [BACE_62] to `COCc1cc2cc(c1)C(=O)N[C@H]([C@H](O)CNCCc1ccncc1)C[C@H](C)CCCCCCCN2` [BACE_65], the IC50 falls from 3400 nM to 1700 nM (2-fold). The second is the more potent here.

Compared with `CC(C)Cc1cncc(CNC[C@@H](O)[C@@H]2C[C@H](C)CC/C=C/CCCCC(=O)N(C)[C@@H](C)C(=O)N2)c1` [BACE_25], `CCCc1cc(CNC[C@@H](O)[C@@H]2C[C@H](C)CCCCCCOCC(=O)N(C)[C@@H](C)C(=O)N2)n[nH]1` [BACE_5] is 3.1-fold higher in IC50: 130 nM for the first, 400 nM for the second. The first is the more potent here.

First: COCc1cc2cc(c1)C(=O)O[C@@H](CNC1(c3cccc(C(C)C)c3)CC1)[C@@H](N)Cc1cccc(c1)OCCCCN2 [BACE_144]
Second: Cc1cc2cc(n1)OCCCCc1cc(cc(Cl)c1O)C[C@@H]([C@H](O)CNC(C)(C)c1cccc(C(C)C)c1)NC2=O [BACE_107]
The IC50 of the first is 140-fold higher: 6400 nM for the first, 47 nM for the second. The second is the more potent here.

Going from `CCCNc1cc(COC)cc(C(=O)N[C@@H](Cc2cccc(OC)c2)[C@H](O)CNCc2cccc(C(C)C)c2)c1` [BACE_146] to `CCN1CCCCC[C@@H](C)C[C@@H]([C@H](O)CNCc2cccc(C(C)C)c2)NC(=O)c2cccc(c2)C1=O` [BACE_6], the IC50 falls from 3100 nM to 21 nM (150-fold). The second is the more potent here.

`C[C@@H]1CC/C=C/CCCNc2cc(CO)cc(c2)C(=O)N[C@H]([C@H](O)CNCc2cc(CC(C)(C)C)on2)C1` [BACE_67] gave an IC50 of 210 nM.
